What was measured:
Rattus norvegicus [1] = assay: Inhibition of sorbitol accumulation in the sciatic nerve in diabetic rats at peroral dose of 30 mg/kg (curative effect); format: functional; conditions: route oral
[2] = molecular target: Aldo-keto reductase family 1 member B1 (Sus scrofa, UniProt P80276); assay: Inhibitory concentration against porcine lens aldose reductase (AR) with DL-glyceraldehyde as the substrate
Rattus norvegicus [3] = assay: Inhibition of sorbitol accumulation in the lens in diabetic rats at peroral dose of 30 mg/kg (curative effect); format: functional; conditions: Lens of camera-type eye, route oral
Rattus norvegicus [4] = assay: Percent inhibition of sorbitol accumulation in the sciatic nerve of streptozotocin (STZ)- induced diabetic rats at peroral dose of 30 mg/kg (preventive effect); format: functional; conditions: route oral
Rattus norvegicus [5] = assay: Percent inhibition of sorbitol accumulation in the lens of streptozotocin (STZ)-induced diabetic rats at peroral dose of 30 mg/kg (preventive effect); format: functional; conditions: Lens of camera-type eye, route oral
[6] = molecular target: Aldo-keto reductase family 1 member B1 (Sus scrofa) (UniProt P80276); assay: In vitro percent inhibition of porcine lens aldose reductase (AR) at 10e -7 M with DL-glyceraldehyde as the substrate
Rattus norvegicus [7] = assay: Percent inhibition of sorbitol accumulation in the lens of streptozotocin (STZ)-induced diabetic rats at peroral dose of 30 mg/kg (curative effect); format: functional; conditions: Lens of camera-type eye, route oral
Rattus norvegicus [8] = assay: Percent inhibition of sorbitol accumulation in the sciatic nerve of streptozotocin (STZ)- induced diabetic rats at peroral dose of 30 mg/kg (curative effect); format: functional; conditions: route oral

IC50 [2] [nM]	SMILES	ED50 (Rattus norvegicus [1]) [mg/kg]	ED50 (Rattus norvegicus [3]) [mg/kg]	inhibition in vivo at 30 mg/kg (Rattus norvegicus [4]) [%]	inhibition in vivo at 30 mg/kg (Rattus norvegicus [5]) [%]	further results
12	CN(C)c1cc(CC(=O)O)cc(Cc2nc3c(F)c(F)cc(F)c3s2)c1.Cl	0.53	> 10	–	–	–
8.8	O=C(O)Cc1cc(F)cc(Cc2nc3c(F)c(F)cc(F)c3s2)c1	0.32	10	–	–	–
11	O=C(O)Cc1cc(I)cc(Cc2nc3c(F)c(F)cc(F)c3s2)c1	> 10	> 10	–	–	–
50	O=C(O)CCCCCc1nc2c(F)c(F)cc(F)c2s1	–	–	–	–	inhibition [6]: 71%
7	O=C(O)Cc1cc(Cl)cc(Cc2nc3c(F)c(F)cc(F)c3s2)c1	0.46	7.8	–	–	–
16	COc1ccc2c(C(=S)N(C)CC(=O)O)cccc2c1C(F)(F)F [TOLRESTAT]	–	–	84	36	–
12	O=C(O)Cn1c(=O)n(Cc2ccc(Br)cc2F)c(=O)c2ccc(Cl)cc21 [ZENARESTAT]	–	–	89	30	inhibition in vivo at 30 mg/kg (Rattus norvegicus [7]): 21%; inhibition in vivo at 30 mg/kg (Rattus norvegicus [8]): 76%
9.3	O=C(O)Cc1cccc(Cc2nc3c(F)c(F)cc(F)c3s2)c1Cl	0.12	0.71	–	–	–
38	O=C(O)Cc1ccc(Cc2nc3c(F)c(F)cc(F)c3s2)cc1	–	–	–	–	–

Further lines, the compound ahead of its results:

SMILES	IC50 [2] [nM]	ED50 (Rattus norvegicus [1]) [mg/kg]	ED50 (Rattus norvegicus [3]) [mg/kg]	inhibition in vivo at 30 mg/kg (Rattus norvegicus [4]) [%]	inhibition in vivo at 30 mg/kg (Rattus norvegicus [5]) [%]	further results
CN(CC(=O)O)C(=O)CCc1nc2c(F)c(F)cc(F)c2s1	–	–	–	61	30	–
O=C(O)CCCCCCc1nc2c(F)c(F)cc(F)c2s1	–	–	–	–	–	inhibition [6]: 11%
O=C(O)CN(Cc1ccccc1)C(=O)CCc1nc2c(F)c(F)cc(F)c2s1	–	–	–	75	54	–
O=C(O)Cc1cc(Cc2nc3c(F)c(F)cc(F)c3s2)cc(C(=O)O)c1	–	> 10	> 10	–	–	–
O=C(O)CN(Cc1ccccc1)C(=S)CCc1nc2c(F)c(F)cc(F)c2s1	–	–	–	65	23	–
O=C(O)Cc1cc(Br)cc(Cc2nc3c(F)c(F)cc(F)c3s2)c1	–	0.68	9.8	–	–	–
O=C(O)CC1Sc2ccccc2N(Cc2nc3c(F)c(F)cc(F)c3s2)C1=O (stereo not drawn)	–	1.8	> 10	–	–	–
O=C(O)CN(C(=O)CCc1nc2c(F)c(F)cc(F)c2s1)c1ccccc1	–	–	–	54	80	–
CN(CC(=O)O)C(=S)CCc1nc2c(F)c(F)cc(F)c2s1	–	–	–	48	58	–
Cc1cc(CC(=O)O)cc(Cc2nc3c(F)c(F)cc(F)c3s2)c1	–	0.25	1.6	–	–	–
O=C(O)CN(CCc1ccccc1)C(=O)CCc1nc2c(F)c(F)cc(F)c2s1	–	–	–	65	-2	–
O=C(O)CN(C(=S)CCc1nc2c(F)c(F)cc(F)c2s1)c1ccccc1	–	–	–	< 64	12	–
O=C(O)Cc1cccc(Cc2nc3c(F)c(F)cc(F)c3s2)c1	–	1.5	> 10	–	–	–
O=C(O)CCCCc1nc2c(F)c(F)cc(F)c2s1	–	–	–	–	–	inhibition [6]: 35%
O=C(O)CCCc1nc2c(F)c(F)cc(F)c2s1	–	–	–	–	–	inhibition [6]: 1%

Reference: ChEMBL document CHEMBL1130466, “Benzothiazol-2-ylcarboxylic acids with diverse spacers: A novel class of potent, orally active aldose reductase inhibitors” (Bioorg Med Chem Lett, 1997)
